# Laboratory results: ChEMBL document CHEMBL4840364, “Penicisteckins A-F, Isochroman-Derived Atropisomeric Dimers from Penicillium steckii HNNU-5B18” (J Nat Prod, 2021)
# Assays:
# [1] = test system: HGC-27; assay: Cytotoxicity against human HGC-27 cells assessed as inhibition of cell viability measured for 48 hrs by CCK colorimetric assay; format: functional, cell-based; conditions: HGC-27, 48 h
# [2] = test system: C6; assay: Cytotoxicity against rat C6 cells assessed as inhibition of cell viability measured for 48 hrs by CCK colorimetric assay; format: functional, cell-based; conditions: C6, 48 h
# [3] = test system: SH-SY5Y; assay: Cytotoxicity against human SH-SY5Y cells assessed as inhibition of cell viability measured for 48 hrs by CCK colorimetric assay; format: functional, cell-based
# [4] = test system: Staphylococcus aureus; assay: Antibacterial activity against Staphylococcus aureus ATCC 29213 assessed as bacterial growth inhibition incubated for 20 hrs by broth micro dilution method; format: functional
# [5] = test system: Staphylococcus aureus; assay: Antibacterial activity against methicillin-resistant Staphylococcus aureus assessed as bacterial growth inhibition incubated for 20 hrs by broth micro dilution method; format: functional
SMILES,IC50 [1] [µM],IC50 [2] [µM],IC50 [3] [µM],MIC [4] [µg/mL],MIC [5] [µg/mL]
COc1cc(O)c(C)c2c1CO[C@@H](C)C2,< 10,< 10,< 10,–,–
COC1=CC(=O)C(C)=C(C[C@@H](C)O)C1=O,< 10,< 10,< 10,2,8
COc1c2c(c(C)c(O)c1-c1c(O)c(C)c3c(c1OC)CO[C@@H](C)C3)C[C@H](C)OC2 (atropisomer aR),< 10,< 10,< 10,–,–
COc1cc(O)c(-c2c(O)c(C)c3c(c2OC)CO[C@@H](C)C3)c2c1CO[C@@H](C)C2 (atropisomer aS),< 10,< 10,< 10,–,–
COC1=C(c2c(O)cc(OC)c3c2C[C@H](C)OC3)C(=O)C(C)=C(C[C@@H](C)O)C1=O (atropisomer aS),< 10,< 10,< 10,–,–
